From ChEMBL document CHEMBL3856266, “Melodinine V, an antitumor bisindole alkaloid with selective cytotoxicity from Melodinus henryi” (Bioorg Med Chem Lett, 2016)
Calls of active or inactive are those of the source. The rule behind the calls is not given here.

Tests used:
[1] = Cytotoxicity against human PANC1 cells assessed as reduction in cell viability after 48 hrs by MTT assay; type: functional, cell-based; conditions: PANC-1, 48 h
[2] = Cytotoxicity against human HS27 cells assessed as reduction in cell viability up to 100 uM after 48 hrs by MTT assay; type: toxicity, cell-based; conditions: hs27, 48 h
[3] = (§1) Antiproliferative activity against human HT-29 cells after 48 hrs by [methyl-3H]-thymidine incorporation assay; type: functional, cell-based; conditions: HT-29, 48 h
HT-29 [4] = assay: as §1; type: functional, cell-based
[5] = Cell cycle arrest in human HT-29 cells assessed as accumulation in G1 phase at 9.8 uM after 24 hrs by propidium iodide staining-based flow cytometry; type: functional
[6] = Cytotoxicity against human MCF7 cells assessed as reduction in cell viability after 48 hrs by MTT assay; type: functional, cell-based; conditions: MCF7, 48 h
[7] = Cytotoxicity against human HT-29 cells assessed as reduction in cell viability after 48 hrs by MTT assay; type: functional, cell-based; conditions: HT-29, 48 h
HT-29 [8] = assay: Induction of apoptosis in human HT-29 cells assessed as increase in histone associated DNA fragmentation after 48 hrs by ELISA; type: functional, cell-based
[9] = Cell cycle arrest in human HT-29 cells assessed as accumulation in G1 phase at 7.4 uM after 24 hrs by propidium iodide staining-based flow cytometry; type: functional

What does the source list for `CC[C@]12CCCN3CCc4c(n(c5ccccc45)[C@@H](c4ccc(O)c5c4N=C4CC[C@]6(CC)CCCN7CC[C@@]45[C@@H]76)C1)[C@@H]32`?
IC50 [1]: 28.1 µM; Activity [2]: Non-Toxic; IC50 [3]: 2.3 µM; inhibition (HT-29 [4]): Dose-dependent effect; Activity [5]: Active; IC50 [6]: 54.5 µM; IC50 [7]: 4.9 µM; Activity (HT-29 [8]): Dose-dependent effect; Activity [9]: Active
